Drawing on ChEMBL document CHEMBL1145498, “A systematic interaction map of validated kinase inhibitors with Ser/Thr kinases” (Proc Natl Acad Sci U S A, 2007), this text covers ΔTm for nine molecules.

Broadly, the ΔTm is the change in melting temperature against a reference sample.

For test [1], the target named is Calcium/calmodulin-dependent protein kinase type II subunit beta (Homo sapiens) (UniProt Q13554).
For test [2], the target named is Cyclin-dependent kinase 6 (Homo sapiens) (UniProt Q00534).
The target of test [3] is Casein kinase I isoform gamma-2 (Homo sapiens) (UniProt P78368).
Test [4] concerns the target Death-associated protein kinase 3 (Homo sapiens) (UniProt O43293).
Test [5] has as its target Glycogen synthase kinase-3 beta (Homo sapiens, UniProt P49841).
For test [6], the target named is Tyrosine-protein kinase JAK1 (Homo sapiens) (UniProt P23458).
Test [7] deals with T1, Dual specificity mitogen-activated protein kinase kinase 6 (Homo sapiens) (UniProt P52564).
T1 sequence (whole entry): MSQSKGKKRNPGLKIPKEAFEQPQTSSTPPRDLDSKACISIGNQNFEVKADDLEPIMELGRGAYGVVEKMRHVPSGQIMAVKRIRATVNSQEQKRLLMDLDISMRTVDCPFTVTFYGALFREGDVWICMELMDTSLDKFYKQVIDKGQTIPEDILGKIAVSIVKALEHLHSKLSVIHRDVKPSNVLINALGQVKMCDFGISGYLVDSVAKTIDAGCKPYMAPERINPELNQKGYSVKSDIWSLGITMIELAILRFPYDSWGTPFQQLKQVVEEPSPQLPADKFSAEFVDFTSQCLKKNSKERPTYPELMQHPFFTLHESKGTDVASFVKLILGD

The target in test [8] is T2, Mitogen-activated protein kinase kinase kinase 5 (Homo sapiens) (UniProt Q99683).
T2 sequence (whole entry): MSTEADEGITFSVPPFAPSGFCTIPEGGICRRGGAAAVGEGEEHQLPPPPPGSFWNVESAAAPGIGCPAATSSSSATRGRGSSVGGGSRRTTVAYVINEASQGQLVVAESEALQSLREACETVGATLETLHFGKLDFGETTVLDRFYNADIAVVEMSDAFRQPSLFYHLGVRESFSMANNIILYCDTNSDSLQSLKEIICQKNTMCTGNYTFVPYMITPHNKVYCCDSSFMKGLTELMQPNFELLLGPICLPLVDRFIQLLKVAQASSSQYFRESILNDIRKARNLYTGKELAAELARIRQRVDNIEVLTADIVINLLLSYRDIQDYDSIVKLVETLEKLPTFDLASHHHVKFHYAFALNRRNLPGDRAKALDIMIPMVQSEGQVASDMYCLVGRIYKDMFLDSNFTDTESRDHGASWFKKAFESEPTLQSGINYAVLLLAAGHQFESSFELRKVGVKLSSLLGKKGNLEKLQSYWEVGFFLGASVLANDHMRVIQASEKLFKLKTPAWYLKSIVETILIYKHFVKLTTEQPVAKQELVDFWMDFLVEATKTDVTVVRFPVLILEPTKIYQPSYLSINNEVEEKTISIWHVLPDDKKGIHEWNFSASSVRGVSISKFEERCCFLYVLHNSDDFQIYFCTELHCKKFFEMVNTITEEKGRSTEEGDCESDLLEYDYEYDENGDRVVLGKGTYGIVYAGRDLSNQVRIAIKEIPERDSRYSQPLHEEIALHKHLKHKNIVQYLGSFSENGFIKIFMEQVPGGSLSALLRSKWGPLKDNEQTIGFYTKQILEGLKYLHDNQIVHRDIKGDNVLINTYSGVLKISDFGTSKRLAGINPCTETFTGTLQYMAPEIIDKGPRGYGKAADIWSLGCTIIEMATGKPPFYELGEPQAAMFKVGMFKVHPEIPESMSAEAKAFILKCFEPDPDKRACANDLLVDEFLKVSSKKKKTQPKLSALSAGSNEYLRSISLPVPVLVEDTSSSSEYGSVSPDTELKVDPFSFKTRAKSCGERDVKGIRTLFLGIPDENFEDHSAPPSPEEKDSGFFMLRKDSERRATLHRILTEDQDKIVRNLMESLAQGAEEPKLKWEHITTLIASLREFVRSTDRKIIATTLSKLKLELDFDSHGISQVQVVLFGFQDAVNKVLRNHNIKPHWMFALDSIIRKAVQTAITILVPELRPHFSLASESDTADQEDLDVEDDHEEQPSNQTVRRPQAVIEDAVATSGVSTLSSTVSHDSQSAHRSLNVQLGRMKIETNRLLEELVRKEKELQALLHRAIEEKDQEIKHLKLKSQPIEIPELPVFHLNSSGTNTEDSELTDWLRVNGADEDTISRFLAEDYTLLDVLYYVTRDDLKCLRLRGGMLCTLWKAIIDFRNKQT

The target of test [9] is Mitogen-activated protein kinase 6 (Homo sapiens) (UniProt Q16659).
The target in test [10] is Serine/threonine-protein kinase 26 (Homo sapiens) (UniProt Q9P289).
Test [11] deals with Serine/threonine-protein kinase PAK 4 (Homo sapiens) (UniProt O96013).
For test [12], the target named is Serine/threonine-protein kinase pim-3 (Homo sapiens) (UniProt Q86V86).
Test [13] concerns the target cAMP-dependent protein kinase catalytic subunit alpha (Homo sapiens) (UniProt P17612).
The target in test [14] is Ribosomal protein S6 kinase alpha-3 (Homo sapiens) (UniProt P51812).
In test [15] the target is T3, Serine/threonine-protein kinase VRK1 (Homo sapiens) (UniProt Q99986).
T3 sequence (whole entry): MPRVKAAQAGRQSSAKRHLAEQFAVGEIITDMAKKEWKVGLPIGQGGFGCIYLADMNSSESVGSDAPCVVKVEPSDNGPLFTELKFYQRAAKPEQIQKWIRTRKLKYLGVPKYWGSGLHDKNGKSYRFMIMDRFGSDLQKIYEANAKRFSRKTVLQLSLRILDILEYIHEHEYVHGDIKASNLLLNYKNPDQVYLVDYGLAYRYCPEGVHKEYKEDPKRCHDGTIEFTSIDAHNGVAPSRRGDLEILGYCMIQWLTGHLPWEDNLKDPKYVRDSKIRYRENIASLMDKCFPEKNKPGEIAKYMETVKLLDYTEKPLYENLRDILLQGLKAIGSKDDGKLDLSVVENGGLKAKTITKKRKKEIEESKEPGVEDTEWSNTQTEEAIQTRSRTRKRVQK

Chain of Tyrosine-protein kinase JAK1 (Homo sapiens) (P23458 whole entry): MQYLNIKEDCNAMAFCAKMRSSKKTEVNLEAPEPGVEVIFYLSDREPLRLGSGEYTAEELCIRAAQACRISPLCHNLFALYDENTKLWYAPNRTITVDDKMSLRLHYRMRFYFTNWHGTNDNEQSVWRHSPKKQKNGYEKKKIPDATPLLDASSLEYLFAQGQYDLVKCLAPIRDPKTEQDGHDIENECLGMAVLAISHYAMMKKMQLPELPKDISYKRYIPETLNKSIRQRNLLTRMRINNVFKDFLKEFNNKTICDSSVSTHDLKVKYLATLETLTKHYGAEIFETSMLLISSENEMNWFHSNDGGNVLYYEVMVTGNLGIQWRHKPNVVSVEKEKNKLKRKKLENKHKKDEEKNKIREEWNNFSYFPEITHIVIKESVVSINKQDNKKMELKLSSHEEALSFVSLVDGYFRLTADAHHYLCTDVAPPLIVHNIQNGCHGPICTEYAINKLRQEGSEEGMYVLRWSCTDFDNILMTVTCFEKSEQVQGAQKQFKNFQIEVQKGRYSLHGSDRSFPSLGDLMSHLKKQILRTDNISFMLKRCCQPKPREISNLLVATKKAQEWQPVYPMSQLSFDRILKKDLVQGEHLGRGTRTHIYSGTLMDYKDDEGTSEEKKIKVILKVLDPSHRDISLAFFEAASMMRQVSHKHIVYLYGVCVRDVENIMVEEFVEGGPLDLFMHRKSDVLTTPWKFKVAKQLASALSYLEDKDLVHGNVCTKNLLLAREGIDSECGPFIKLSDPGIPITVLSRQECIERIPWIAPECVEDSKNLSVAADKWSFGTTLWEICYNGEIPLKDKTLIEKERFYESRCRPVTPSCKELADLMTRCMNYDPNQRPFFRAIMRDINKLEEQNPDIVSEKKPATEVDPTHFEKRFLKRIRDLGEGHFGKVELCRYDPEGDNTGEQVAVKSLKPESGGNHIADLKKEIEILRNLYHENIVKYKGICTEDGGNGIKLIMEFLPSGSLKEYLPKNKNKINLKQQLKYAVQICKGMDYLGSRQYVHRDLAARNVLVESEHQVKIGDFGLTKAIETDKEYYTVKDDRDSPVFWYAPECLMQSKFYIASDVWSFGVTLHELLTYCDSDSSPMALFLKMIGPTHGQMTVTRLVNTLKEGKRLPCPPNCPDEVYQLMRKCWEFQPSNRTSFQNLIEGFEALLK
Chain of Death-associated protein kinase 3 (Homo sapiens) (O43293 whole entry, looked up): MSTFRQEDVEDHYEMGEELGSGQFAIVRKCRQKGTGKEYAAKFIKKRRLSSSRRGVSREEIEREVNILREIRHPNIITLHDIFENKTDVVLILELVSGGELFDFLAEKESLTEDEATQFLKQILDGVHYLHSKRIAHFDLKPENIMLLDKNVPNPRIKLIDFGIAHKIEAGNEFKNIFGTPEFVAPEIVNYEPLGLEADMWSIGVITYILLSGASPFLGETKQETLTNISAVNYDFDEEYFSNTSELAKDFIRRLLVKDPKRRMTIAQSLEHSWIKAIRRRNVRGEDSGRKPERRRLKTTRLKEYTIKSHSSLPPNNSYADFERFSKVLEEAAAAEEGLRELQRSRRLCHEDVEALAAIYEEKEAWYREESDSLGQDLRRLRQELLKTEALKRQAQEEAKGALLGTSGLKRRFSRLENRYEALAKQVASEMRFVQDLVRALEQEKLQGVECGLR
Chain of Calcium/calmodulin-dependent protein kinase type II subunit beta (Homo sapiens) (Q13554 whole entry): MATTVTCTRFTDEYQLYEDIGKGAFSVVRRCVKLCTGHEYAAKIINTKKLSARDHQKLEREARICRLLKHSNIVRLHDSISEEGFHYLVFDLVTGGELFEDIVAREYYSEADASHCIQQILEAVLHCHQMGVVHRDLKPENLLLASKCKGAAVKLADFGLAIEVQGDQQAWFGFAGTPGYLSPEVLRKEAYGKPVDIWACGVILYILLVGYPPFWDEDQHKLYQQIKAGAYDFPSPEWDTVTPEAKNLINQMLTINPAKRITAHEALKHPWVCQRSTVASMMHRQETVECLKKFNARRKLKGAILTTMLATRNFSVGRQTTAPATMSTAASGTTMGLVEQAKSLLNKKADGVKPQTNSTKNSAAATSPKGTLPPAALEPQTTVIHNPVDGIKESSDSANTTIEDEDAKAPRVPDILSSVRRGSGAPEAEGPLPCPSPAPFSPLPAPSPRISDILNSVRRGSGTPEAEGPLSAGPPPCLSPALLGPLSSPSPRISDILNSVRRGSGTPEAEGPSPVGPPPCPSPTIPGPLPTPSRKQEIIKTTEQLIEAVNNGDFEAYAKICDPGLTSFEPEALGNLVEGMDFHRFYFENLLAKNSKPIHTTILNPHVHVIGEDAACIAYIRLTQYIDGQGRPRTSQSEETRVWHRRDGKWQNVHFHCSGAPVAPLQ
Chain of Glycogen synthase kinase-3 beta (P49841 whole entry, looked up): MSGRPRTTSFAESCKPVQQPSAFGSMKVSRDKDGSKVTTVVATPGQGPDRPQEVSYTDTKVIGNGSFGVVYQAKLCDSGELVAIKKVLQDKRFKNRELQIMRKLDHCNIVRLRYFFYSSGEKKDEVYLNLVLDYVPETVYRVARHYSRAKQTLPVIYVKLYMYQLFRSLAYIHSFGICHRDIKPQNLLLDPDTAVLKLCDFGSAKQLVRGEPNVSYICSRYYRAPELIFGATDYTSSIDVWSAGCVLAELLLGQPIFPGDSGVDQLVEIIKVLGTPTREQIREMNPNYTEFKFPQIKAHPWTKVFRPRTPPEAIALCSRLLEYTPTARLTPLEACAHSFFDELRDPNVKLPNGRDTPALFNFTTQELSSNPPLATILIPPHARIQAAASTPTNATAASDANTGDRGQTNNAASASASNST
Chain of Serine/threonine-protein kinase PAK 4 (Homo sapiens) (O96013 whole entry, looked up): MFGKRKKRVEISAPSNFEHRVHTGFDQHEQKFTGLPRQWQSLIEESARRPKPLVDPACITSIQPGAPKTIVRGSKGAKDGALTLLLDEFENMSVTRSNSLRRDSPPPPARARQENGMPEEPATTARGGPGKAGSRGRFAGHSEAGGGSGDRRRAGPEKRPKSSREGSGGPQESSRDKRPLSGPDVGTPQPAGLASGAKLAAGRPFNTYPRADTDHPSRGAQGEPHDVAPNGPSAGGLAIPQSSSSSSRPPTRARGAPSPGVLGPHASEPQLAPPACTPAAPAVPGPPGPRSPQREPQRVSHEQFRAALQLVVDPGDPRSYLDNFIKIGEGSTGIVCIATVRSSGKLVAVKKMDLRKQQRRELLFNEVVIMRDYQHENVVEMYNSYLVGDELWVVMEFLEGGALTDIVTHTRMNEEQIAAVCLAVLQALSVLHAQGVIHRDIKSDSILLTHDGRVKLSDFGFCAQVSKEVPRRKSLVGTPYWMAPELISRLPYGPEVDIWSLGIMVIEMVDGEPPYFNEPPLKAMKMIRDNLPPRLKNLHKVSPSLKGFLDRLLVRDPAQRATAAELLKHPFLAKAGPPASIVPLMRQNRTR
Chain of Cyclin-dependent kinase 6 (Homo sapiens) (Q00534 whole entry, canonical isoform): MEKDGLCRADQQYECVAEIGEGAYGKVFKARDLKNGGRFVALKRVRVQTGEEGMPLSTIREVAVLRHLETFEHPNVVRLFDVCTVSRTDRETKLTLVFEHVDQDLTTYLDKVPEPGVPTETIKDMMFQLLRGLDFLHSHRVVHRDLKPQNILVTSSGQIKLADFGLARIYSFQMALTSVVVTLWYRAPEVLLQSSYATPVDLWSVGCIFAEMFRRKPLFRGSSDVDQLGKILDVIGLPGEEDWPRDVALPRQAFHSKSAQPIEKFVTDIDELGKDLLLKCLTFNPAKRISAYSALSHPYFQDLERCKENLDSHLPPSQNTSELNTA
Chain of Mitogen-activated protein kinase 6 (Homo sapiens) (Q16659 whole entry): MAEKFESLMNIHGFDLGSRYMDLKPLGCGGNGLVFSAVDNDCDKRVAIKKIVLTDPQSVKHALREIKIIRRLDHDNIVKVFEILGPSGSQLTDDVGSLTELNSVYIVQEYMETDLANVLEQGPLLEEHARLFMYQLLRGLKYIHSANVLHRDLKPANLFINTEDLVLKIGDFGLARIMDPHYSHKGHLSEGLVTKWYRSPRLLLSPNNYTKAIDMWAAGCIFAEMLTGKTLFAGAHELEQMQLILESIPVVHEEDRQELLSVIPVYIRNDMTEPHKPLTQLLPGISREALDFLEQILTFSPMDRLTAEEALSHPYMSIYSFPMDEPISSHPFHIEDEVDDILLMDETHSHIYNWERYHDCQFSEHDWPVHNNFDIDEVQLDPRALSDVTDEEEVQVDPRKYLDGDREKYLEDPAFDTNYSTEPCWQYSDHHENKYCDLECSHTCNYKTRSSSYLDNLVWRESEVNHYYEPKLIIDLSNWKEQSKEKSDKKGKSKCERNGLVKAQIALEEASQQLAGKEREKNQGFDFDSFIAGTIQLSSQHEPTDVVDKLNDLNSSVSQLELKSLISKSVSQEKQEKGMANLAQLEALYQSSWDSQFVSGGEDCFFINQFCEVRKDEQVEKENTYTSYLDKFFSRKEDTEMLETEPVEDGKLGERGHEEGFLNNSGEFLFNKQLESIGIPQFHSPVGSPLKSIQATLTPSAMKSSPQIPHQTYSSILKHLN

For the molecule `CCOc1ccc(/C=C2/SC(=O)N(CCN)C2=O)cc1` [HIAZOLIDINEDIONE1], the thermal shift (ΔTm) is -0.5 °C in test [1]; 0.2 °C in test [2]; 0.6 °C in test [3]; 0.3 °C in test [4]; -1.3 °C in [5]; -0.1 °C in test [6]. The ΔTm in [7] was 0.1 °C; in test [8], 0.4 °C; in test [9], 0.6 °C; in test [10], -0.3 °C; in [11], 0.6 °C; in [12], 0.5 °C. Also, the ΔTm was determined as 0.5 °C in [13], 0 °C in [14] and 0.3 °C in [15].

Regarding `Cc1cc(Nc2nc(-c3ccccc3)nc3ccccc23)n[nH]1`, the ΔTm in [1] amounted to 0.6 °C; in test [2], 1.9 °C; in test [3], 3.3 °C; in test [4] it was 6.5 °C; in [5] it was 8.6 °C; in [6] it was 12.2 °C. The thermal shift (ΔTm) in test [7] is 2.3 °C; in test [8] it was 0.9 °C; in [9] it was 0.2 °C; in [10], 3.3 °C; in [11] it was 5.9 °C; in test [12], 5.2 °C. Besides, the thermal shift (ΔTm) in test [13] came out at 6.4 °C; in [14] it was 6.4 °C; in test [15], 0.8 °C.

As to `CCOC(=O)c1cnc2oc3ccc(O)cc3c2c1-c1ccccc1`, the thermal shift (ΔTm) worked out at 0.4 °C in test [1]; 0.1 °C in [2]; 1.1 °C in [3]; 0.8 °C in test [4]; 4.3 °C in test [5]; 8.6 °C in test [6]. The ΔTm in test [7] is 1.9 °C; in test [8], 2.1 °C; in [9] it was 0.2 °C; in [10] it was -0.2 °C; in [11], 0.7 °C; in test [12] it was 5.2 °C. The shift in melting temperature (ΔTm) in [13] is 1.3 °C; in [14], 1 °C; in test [15] it was 0.1 °C.

Regarding `Brc1c(Br)c(Br)c2[nH]nnc2c1Br` [TETRABROMOBENZOTRIAZOLE], the thermal shift (ΔTm) stood at 1.2 °C in test [1]; 0.3 °C in [2]; 0.3 °C in test [3]; 3.6 °C in [4]; 2.4 °C in test [5]; 0.7 °C in test [6]. In addition, the ΔTm in test [7] is 2.4 °C; in test [8], 1.9 °C; in [9] it was -0.2 °C; in test [10], 1.2 °C; in [11], -0.1 °C; in test [12] it was 4.9 °C. Moreover, the ΔTm in [13] is 0.6 °C; in test [14] it was 1.7 °C; in test [15] it was -1.5 °C.

In the case of `c1ccc(-c2n[nH]c3c2oc2ccccc23)cc1`, the ΔTm in test [1] was 0.6 °C; in test [2], 0.6 °C; in [3] it was 1 °C; in test [4], -0.9 °C; in test [5], 0.8 °C; in [6], 5.2 °C. For the same molecule, the thermal shift (ΔTm) was 1 °C in test [7]; 1.4 °C in test [8]; 0.1 °C in test [9]; 0.6 °C in [10]; -0.3 °C in test [11]; -1.3 °C in test [12]. Besides, the results for the thermal shift (ΔTm) in test [13], in test [14] and in [15] were 2.8 °C, 1.1 °C and 1 °C, respectively.

In the case of `C=CNC#N`, the ΔTm is 1.2 °C in [1]; 0.1 °C in test [2]; 0.1 °C in test [3]; -0.2 °C in test [4]; 0.5 °C in test [5]; -0.9 °C in [6]. The ΔTm in [7] was 0.3 °C; in test [8], 0.4 °C; in test [9], 1 °C; in [10], -1.4 °C; in test [11] it was 1.8 °C; in test [12], 1 °C. Moreover, the ΔTm in [13] came out at 1.6 °C; in [14], 1 °C; in test [15], 1 °C.

With `N#CC(C#N)=Cc1ccc(O)c(O)c1` [TYRPHOSTIN 23], the ΔTm came to 0.1 °C in test [1]; 0.2 °C in test [2]; 0.4 °C in [3]; 0.7 °C in [4]; 0.8 °C in [5]; 0.1 °C in [6]. Also, the ΔTm is 0.2 °C in [7]; 0.1 °C in test [8]; 0.1 °C in [9]; 0.3 °C in [10]; -0.1 °C in test [11]; 1.6 °C in [12]. Besides, the figures for the ΔTm in test [13], in test [14] and in [15] were 0.6 °C, 2.7 °C and 0.1 °C, respectively.

`CCOc1cc2ncnc(Nc3cccc(Br)c3)c2cc1OCC`: the thermal shift (ΔTm) in test [1] amounted to 0.8 °C; in test [2], 0.2 °C; in test [3] it was 0.6 °C; in [4], 2.7 °C; in test [5], 2.8 °C; in [6], 2.7 °C. Also, the ΔTm turned out to be 0.3 °C in [7]; 0.6 °C in [8]; 0.2 °C in test [9]; 1.3 °C in [10]; 0.4 °C in [11]; 2.7 °C in test [12]. For the same molecule, the values for the ΔTm in test [13], in test [14] and in test [15] were 0.8 °C, 0.2 °C and 0 °C, respectively.

As to `NC(=O)c1ccc2[nH]c(-c3ccc(Oc4ccc(Cl)cc4)cc3)nc2c1`, the ΔTm is 0.5 °C in test [1]; 0.6 °C in [2]; 1.6 °C in [3]; 1.2 °C in test [4]; 1 °C in [5]; 1.7 °C in [6]. Further, the ΔTm in [7] was 0.4 °C; in test [8], 1 °C; in test [9], 0.5 °C; in test [10], -0.1 °C; in test [11] it was 1.3 °C; in test [12], -0.8 °C. The ΔTm in [13] amounted to 0.4 °C; in test [14], 1 °C; in test [15], 0.5 °C.
